Test results taken from US6509368B1, “Use of catechol derivatives as proteinase inhibitors” (Gruenenthal GmbH, priority 1998, dated 2003).

Assays:
[1] = molecular target: Human leucocyte collagenase (MMP-8) (Homo sapiens, UniProt P22894); test: Inhibition of purified human leucocyte collagenase in vitro; assay type: biochemical
Protocol: (§1) The experiments were carried out in vitro using purified human enzymes. The enzyme substrates used were substrates to be measured by photometry or fluorometry.

[2] = molecular target: Human gelatinase B (MMP-9) (Homo sapiens, UniProt P14780); test: Inhibition of purified human gelatinase B in vitro; assay type: biochemical
Protocol: as §1

[3] = tested on: mesenchymal cells from the limb buds of murine embryos (chondrocytes); test: Organoid model of cartilage formation: mineralisation in the presence of LPS; assay type: cell-based; settings: concentration of 10 μm; calcium content of extracellular matrix after culturing for 14 days
Protocol: In a further in vitro experiment, the effectiveness of the compounds as regards inflammatory diseases was tested in an organoid model of cartilage formation. For that model, mesenchymal cells from the limb buds of murine embryos were placed in cell culture. In the cell culture, the cells formed an extracellular matrix corresponding to joint cartilage. Mineralisation of the extracellular matrix was induced by addition of β-glycerophosphate. Cartilage formation and mineralisation were inhibited by addition of bacterial lipopolysaccharide (LPS) as inflammation mediator. The effect of the compounds on the LPS-induced impairment of mineralisation was examined by measuring the calcium content of the extracellular matrix by flame photometry after culturing for 14 days.
The values indicate the percentage increase in mineralisation in comparison with the LPS-treated culture.

[4] = molecular target: T1, Human elastase (Homo sapiens, UniProt P08246); test: Inhibition of purified human elastase in vitro; assay type: biochemical
T1 sequence (P08246 30-247 limits assumed): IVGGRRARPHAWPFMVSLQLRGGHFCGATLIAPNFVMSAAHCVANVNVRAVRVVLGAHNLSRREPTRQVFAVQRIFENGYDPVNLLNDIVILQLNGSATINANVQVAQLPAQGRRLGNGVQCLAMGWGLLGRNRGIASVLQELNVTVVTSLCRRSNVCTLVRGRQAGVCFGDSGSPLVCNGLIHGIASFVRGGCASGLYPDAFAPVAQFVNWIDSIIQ
Protocol: as §1

[5] = molecular target: Stromelysin-1 (MMP-3) (Homo sapiens, UniProt P08254); test: Inhibition of purified stromelysin-1 in vitro; assay type: biochemical
Protocol: as §1

[6] = molecular target: T2, Human fibroblast collagenase (MMP-1) (Homo sapiens, UniProt P03956); test: Inhibition of purified human fibroblast collagenase in vitro; assay type: biochemical; settings: read-out: Human fibroblast collagenase (MMP-1): % inhibition at concentration
T2 sequence (P03956 100-469): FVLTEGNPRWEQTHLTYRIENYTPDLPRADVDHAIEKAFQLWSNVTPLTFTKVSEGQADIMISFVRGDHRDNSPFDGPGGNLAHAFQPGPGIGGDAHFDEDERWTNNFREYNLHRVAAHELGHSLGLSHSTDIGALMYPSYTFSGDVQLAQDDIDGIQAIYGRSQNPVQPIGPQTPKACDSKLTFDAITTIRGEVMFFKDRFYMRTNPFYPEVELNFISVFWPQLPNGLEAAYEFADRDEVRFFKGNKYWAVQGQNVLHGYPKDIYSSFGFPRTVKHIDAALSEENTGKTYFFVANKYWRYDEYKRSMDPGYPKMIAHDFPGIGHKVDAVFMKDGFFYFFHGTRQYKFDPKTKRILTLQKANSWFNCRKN
Protocol: as §1

Stromelysin-1 (MMP-3), sequence (P08254 100-477): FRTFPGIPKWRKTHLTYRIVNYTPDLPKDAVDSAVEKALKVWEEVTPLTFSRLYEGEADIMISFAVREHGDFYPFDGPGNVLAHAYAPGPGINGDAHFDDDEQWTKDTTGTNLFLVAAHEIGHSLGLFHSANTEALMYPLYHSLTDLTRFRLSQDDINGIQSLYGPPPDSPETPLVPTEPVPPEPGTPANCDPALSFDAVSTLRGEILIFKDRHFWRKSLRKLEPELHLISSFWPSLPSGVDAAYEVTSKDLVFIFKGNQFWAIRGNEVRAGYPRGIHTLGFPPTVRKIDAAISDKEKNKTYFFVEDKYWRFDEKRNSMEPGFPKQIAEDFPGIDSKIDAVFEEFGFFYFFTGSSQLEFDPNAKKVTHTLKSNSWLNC
Human leucocyte collagenase (MMP-8), sequence (P22894 101-467): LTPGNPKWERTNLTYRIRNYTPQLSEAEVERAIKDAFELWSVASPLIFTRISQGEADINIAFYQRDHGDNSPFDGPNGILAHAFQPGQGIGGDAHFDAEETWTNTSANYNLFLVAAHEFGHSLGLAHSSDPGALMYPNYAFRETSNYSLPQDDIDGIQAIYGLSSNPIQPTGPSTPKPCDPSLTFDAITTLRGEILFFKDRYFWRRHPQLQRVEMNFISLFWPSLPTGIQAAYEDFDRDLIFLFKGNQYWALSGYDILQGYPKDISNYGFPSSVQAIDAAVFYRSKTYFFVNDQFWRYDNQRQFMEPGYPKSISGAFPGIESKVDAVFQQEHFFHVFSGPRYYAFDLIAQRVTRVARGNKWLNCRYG
Human gelatinase B (MMP-9), sequence (P14780 94-707): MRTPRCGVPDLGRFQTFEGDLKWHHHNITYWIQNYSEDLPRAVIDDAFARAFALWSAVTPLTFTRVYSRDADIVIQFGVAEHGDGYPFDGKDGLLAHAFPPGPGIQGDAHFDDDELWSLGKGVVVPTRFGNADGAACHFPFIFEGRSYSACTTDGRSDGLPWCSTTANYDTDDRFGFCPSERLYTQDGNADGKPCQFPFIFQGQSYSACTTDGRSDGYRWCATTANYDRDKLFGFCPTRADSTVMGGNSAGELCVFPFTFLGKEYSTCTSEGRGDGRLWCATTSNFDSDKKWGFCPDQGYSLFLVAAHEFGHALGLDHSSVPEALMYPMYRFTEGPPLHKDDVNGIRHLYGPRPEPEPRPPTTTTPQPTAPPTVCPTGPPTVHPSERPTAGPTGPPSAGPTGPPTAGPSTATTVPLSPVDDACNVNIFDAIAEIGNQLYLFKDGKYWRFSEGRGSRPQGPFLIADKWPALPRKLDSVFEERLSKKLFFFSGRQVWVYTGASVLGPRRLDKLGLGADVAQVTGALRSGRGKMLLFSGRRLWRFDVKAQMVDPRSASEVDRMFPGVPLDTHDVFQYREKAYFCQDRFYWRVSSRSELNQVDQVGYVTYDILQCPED

SMILES: COC(=O)C1=Cc2cc(O)c(O)c(O)c2CC1 [Example 1, 5,6,7-trihydroxy-3,4-dihydronaphthalene-2-carboxylic acid methyl ester]
- IC50 [1]: 60 µM
- IC50 [2]: 72 µM
- Chondrocytes: Mineralisation in the presence of LPS; action (percentage increase in mineralisation in comparison with the LPS-treated culture) [3]: +42%
- IC50 [4]: 5.5 µM
- IC50 [5]: 850 µM

SMILES: CCCCCC#Cc1ccc(O)c(O)c1C=CC(=O)OC [Example 2, 3-(6-hept-1-ynyl-2,3-dihydroxy-phenyl)-acrylic acid methyl ester]
- IC50 [1]: 173 µM
- Chondrocytes: Mineralisation in the presence of LPS; action (percentage increase in mineralisation in comparison with the LPS-treated culture) [3]: +38%
- IC50 [4]: 2 µM

SMILES: CCCCCCCCCOc1ccc(O)c(O)c1 [Example 3, 4-nonyloxy-1,2-benzene diol]
- inhibition at 100 µM ([1]; 100 μM, read-out: Human leucocyte collagenase (MMP-8): % inhibition at concentration): 40%
- Chondrocytes: Mineralisation in the presence of LPS; action (percentage increase in mineralisation in comparison with the LPS-treated culture) [3]: +43%
- IC50 [4]: 1.6 µM
- IC50 [5]: 320 µM

SMILES: OCC#CCCCCCCC#Cc1ccc(O)c(O)c1 [Example 4, 4-(11-hydroxy-undeca-1,9-diynyl)-1,2-benzene diol]
- Chondrocytes: Mineralisation in the presence of LPS; action (percentage increase in mineralisation in comparison with the LPS-treated culture) [3]: +12%
- IC50 [4]: 55 µM

SMILES: Oc1ccc(C=Cc2ccc3ccccc3c2)cc1O [Example 5, 4-(2-naphth-2-yl-vinyl)-1,2-benzene diol]
- IC50 [1]: 100 µM
- IC50 [2]: 32 µM
- inhibition at 100 µM [6]: 40%
- Chondrocytes: Mineralisation in the presence of LPS; action (percentage increase in mineralisation in comparison with the LPS-treated culture) [3]: +81%
- IC50 [4]: 0.125 µM
- inhibition at 100 µM ([5]; 100 μM, read-out: Stromelysin-1 (MMP-3) % inhibition at concentration): 22%

SMILES: O=C(c1ccc(O)c(O)c1)c1cc(-c2ccccc2)[nH]n1 [Example 6, (3,4-dihydroxy-phenyl)(5-phenyl-1H-pyrazol-3-yl)-methanone]
- Chondrocytes: Mineralisation in the presence of LPS; action (percentage increase in mineralisation in comparison with the LPS-treated culture) [3]: +17%
